Reference: patent publication US7091040B1, “P450/acetaminophen genetically directed enzyme prodrug therapy (GDEPT)” (Innovata PLC, priority 1999, dated 2006)

What was measured:
COS cells = test: Viability of COS cells transiently transfected with mouse CYP1A2 versus non-transfected COS cells, tritiated thymidine incorporation; assay type: cell-based
Experimental: FIG. 1 is a graphical representation of an acetaminophen titration showing the sensitivity of COS cells transiently transfected with a vector incorporating mouse CYP1A2 and non-transfected control COS cells. Cell viability is monitored by tritiated thymidine incorporation;
FIG. 2 is a cell viability time course of COS cells transiently transfected with mouse CYP1A2 and non-transfected control COS cells over a 24 hr period.
Acetaminophen concentration is 10 mM. Cell viability is monitored by tritiated thymidine incorporation;
COS cells are plated at 1.5×10^5 per well in 6 well tissue culture dishes the evening before transfection. […] All tissue culture reagents can be obtained from Gibco BRL, Paisley, UK.
To the LPA/DNA complex, 200 μl of serum free medium is added to each LPA/DNA sample which is then gently added to the cells over a period of 3–4 seconds. Cells are returned to a 37° C. CO2 incubator for 6 hours. […]
Transfected COS cells are either exposed to various concentrations of acetaminophen or incubated in the presence of 10 mM acetaminophen and cell viability monitored with time. ^3H-thymidine (Amersham International UK, 100 Ci/mmol, 5 μCi per assay), is added to treated and control cultures and aliquots removed and acid precipitable counts assessed by liquid scintillation using a Beckton Liquid Scintillation Counter.

HCT116 cells = test: Bystander effect on viability of HCT116 cells co-cultured with H1A2 MZ cells in the presence of acetaminophen, trypan blue exclusion; assay type: cell-based, human; settings: for viability at 4000 µM: Homo sapiens
Experimental: Tumour cells or V79 MZ cells (non transfected, parental cells) were co-cultured overnight with various mixtures of H1A2 MZ cells (as indicated in the Table), washed with PBS and incubated with 4 mM acetaminophen in PBS for 6 h at 37° C. the cells were then washed once with PBS and maintained for either 24 or 48 h in culture medium appropriate to each cell type, as detailed in the Methods section. At 0, 6, 24 or 48 h the cells were washed in PBS and viability of the mixed cell population determined by trypan blue exclusion. The data shown are mean values±SEM of 4 separate determinations. Statistical significance was determined at each time point by comparing viability measurements in the mixed cell populations with both the viability determined at 0 h and in the absence of H1A2 MZ cells in the mixture 2×2 contingency tables using the 2-tailed Chi-squared test with Yate's correction. Viability was determined in a total of 1500 cells at each time point. Levels of significance are indicated as **p<0.001; ***p<0.0001;
(§1) For cell viability experiments 200,000 cells per well were plated on 12 well plates (Beckton-Dickenson, Oxford, UK), using the medium and conditions required by the tumour cell line and allowed to adhere overnight. After this the cells were washed with PBS before the addition of acetaminophen in 0.1 ml PBS (concentrations of 0.1–20 mM acetaminophen were dissolved in PBS by sonication) and then maintained at 37° C. At the appropriate time points, cells were removed from the plates by trypsinisation and collected by centrifugation. Cell viability was measured as ability to exclude trypan blue. Cells were counted at ×100 magnification using an Improved Neubauer haemocytometer; all cell counts are the mean of duplicate determinations of five fields from duplicate experiments.
(§2) V79 MZ Chinese hamster cells were maintained in Dulbecco-Vogt's modified Eagle's Medium (DMEM) supplemented with 10% foetal calf serum 9FCS), 2 mM L-glutamine, penicillin (100 U/ml and streptomycin (100 μg/ml) (all tissue culture reagents were obtained from Gibco BRL, Paisley, UK). H1A2 MZ cells, which are V79 MZ cells transfected with the human CYP1A2 gene, were also maintained in supplemented DMEM with the addition of geneticin at a concentration of 4 mg/ml. SK-OV-3 cells were grown in DMEM supplemented with 15% FCS and 2 mM L-glutamine, without the addition of antibiotics. RPMI-1640 medium with 10% FCS, 2 mM L-glutamine, penicillin (100 U/ml) and streptomycin ([…]) was required by the HCT116 cells. These cell lines were maintained at 37° C. with 100% humidity and 5% CO2. […] At confluence cells were removed from tissue culture flasks by inubation with trypsin-EDTA for 5 min, diluted 1:3–1:6 in fresh medium and seeded onto fresh flasks. The tumour cell lines were obtained from the European Collection of Cell Cultures.

H1A2 MZ cells = test: Viability of H1A2 MZ cells (stably transfected with human CYP1A2) incubated with acetaminophen, trypan blue exclusion; settings: H1A2 MZ cells; 0.1 mM acetaminophen; 6 h
Experimental: as §1, §2

[1] = as above; settings: Chinese hamster
Experimental: as §1, §2

In the case of `CC(=O)Nc1ccc(O)cc1` [acetaminophen], the “extent of acetaminophen sensitivity over time (tritiated thymidine incorporation)” value (COS cells; 10 mM acetaminophen, transfected COS cells versus non-transfected control cells over 24 hrs) is reported as “increases markedly during the first 4–8 hrs”, the “sensitivity to acetaminophen (tritiated thymidine incorporation)” value (COS cells; acetaminophen titration, COS cells transfected with CYP1A2 (48 hrs expression) versus non-transfected control COS cells) is reported as “significant increase in sensitivity” and the “Viability (%)” value (HCT116 cells; HCT116 cells + 5% H1A2 MZ cells, 4 mM acetaminophen 6 h, then 24 h in culture medium) is reported as “zero”. The “susceptibility to cytotoxicity produced by the activation of acetaminophen” value (HCT116 cells; HCT116 cells incubated with 5 and 10% H1A2 MZ cells, 4 mM acetaminophen, 6 h) was “disproportionate decrease in viability”, the viability at 4000 µM (HCT116 cells; HCT-116, 0 h, HCT116 cells + 5% H1A2 MZ cells, 4 mM acetaminophen in PBS, 0 h) was 98 ± 1% and the viability at 4000 µM (HCT116 cells; HCT-116, 0 h, HCT116 cells + 10% H1A2 MZ cells, 4 mM acetaminophen in PBS, 0 h) was 98 ± 1%. The viability at 4000 µM (HCT116 cells; HCT-116, 0 h, HCT116 cells + 25% H1A2 MZ cells, 4 mM acetaminophen in PBS, 0 h) was 97 ± 1%, the viability at 4000 µM (HCT116 cells; HCT-116, 0 h, HCT116 cells + 50% H1A2 MZ cells, 4 mM acetaminophen in PBS, 0 h) was 98 ± 1% and the viability at 4000 µM (HCT116 cells; HCT-116, 0 h, HCT116 cells, 0% H1A2 MZ cells, 4 mM acetaminophen in PBS, 0 h) was 96 ± 1%. It also gave a viability at 4000 µM (HCT116 cells; HCT-116, 6 h, HCT116 cells + 5% H1A2 MZ cells, 4 mM acetaminophen in PBS, 6 h) of 69 ± 9%, a viability at 4000 µM (HCT116 cells; HCT-116, 6 h, HCT116 cells + 10% H1A2 MZ cells, 4 mM acetaminophen in PBS, 6 h) of 60 ± 6% and a viability at 4000 µM (HCT116 cells; HCT-116, 6 h, HCT116 cells + 25% H1A2 MZ cells, 4 mM acetaminophen in PBS, 6 h) of 56 ± 4%. It also gave a viability at 4000 µM (HCT116 cells; HCT-116, 6 h, HCT116 cells + 50% H1A2 MZ cells, 4 mM acetaminophen in PBS, 6 h) of 42 ± 6%, a viability at 4000 µM (HCT116 cells; HCT-116, 6 h, HCT116 cells, 0% H1A2 MZ cells, 4 mM acetaminophen in PBS, 6 h) of 96 ± 5% and a viability at 4000 µM (HCT116 cells; HCT-116, HCT116 cells + 5% H1A2 MZ cells, 4 mM acetaminophen 6 h, then 24 h in culture medium) of 0%. The viability at 4000 µM (HCT116 cells; HCT-116, HCT116 cells + 10% H1A2 MZ cells, 4 mM acetaminophen 6 h, then 24 h in culture medium) was 0%, the viability at 4000 µM (HCT116 cells; HCT-116, HCT116 cells + 25% H1A2 MZ cells, 4 mM acetaminophen 6 h, then 24 h in culture medium) was 0% and the viability at 4000 µM (HCT116 cells; HCT-116, HCT116 cells + 50% H1A2 MZ cells, 4 mM acetaminophen 6 h, then 24 h in culture medium) was 0%. For the same compound, the viability at 4000 µM (HCT116 cells; HCT-116, HCT116 cells, 0% H1A2 MZ cells, 4 mM acetaminophen 6 h, then 24 h in culture medium) was 96 ± 2%, the cytotoxicity (H1A2 MZ cells) was “No cytotoxicity” and the viability at 6 h, 1 mM [1] was 62%. For the same compound, the viability at 6 h, 4 mM [1] was 8%.
